Data: patent US20040127439A1, “Introduction of the wld gene for prevention of axonal degeneration in neurological diseases” (priority 2004, published 2004)
Like-named read-outs stand apart in the source and are kept apart here.

Tests used:
DRG neurites [1] = settings: for Area (DRG neuritic halo) / Length (longest neurite): Vin 0.01 μM, EGTA 2 mM
Protocol: On the day of DRG culture, the dishes are washed twice with PBS buffer (pH 7.4), filled with 550 μl medium and pre-incubated at 37 C for at least 2 hours. Fifteen-day old embryos (E15) are removed from pregnant Sprague-Dawley rats (Charles River), and spinal cords with cervical and thoracic DRGs attached are dissected into Leibovitz L-15 medium (GIBCO). Ganglia are separated from the spinal cord, stripped of their connective tissue sheaths and roots, and are then pooled and washed twice with PBS buffer (pH 7.4). DRGs are plated (4 per dish) in culture media and incubated at 37° C. in 5% carbon dioxide for 4 hours to allow DRGs to attach to the substrate. Medium is then added to bring the total volume to 1 ml. […] Calcium-free medium is prepared in the same manner, replacing MEM with S-MEM (GIBCO).
At the end of the treatment period (see below) DRGs are fixed for 30 minutes with 4% paraformaldehyde. Cultures are then rinsed with 0.1M TBS buffer, and treated sequentially with 3% H2O2, TBS-Triton, and 4% normal goat serum (NGS), each for 30 minutes at room temperature. DRGs are incubated at 4 C overnight in monoclonal antibody to MAP5 (1:500, Sigma). After washing in TBS-Triton, DRGs are incubated for 60 minutes in biotinylated secondary antibody, rinsed with TBS and reacted with avidin-biotin complex solution (ABC; Vector Labs) for one hour. Color is generated by incubation for 10 minutes in diaminobenzidine (DAB) solution, enhanced by addition of 0.025% cobalt chloride and 0.02% nickel ammonium sulfate. Stained tissue is rinsed, air dried and cover-slipped for microscopy with Crystal/Mount (Biomeda).
This method of allowing neuritic extension to proceed before addition of a neurotoxin tests the effect of the toxin on established neurites as opposed to the effect on primary neuritic outgrowth.
After day 5 of culture, the media is changed to that containing the experimental treatment. This date is defined as treatment day 0. Cultures are monitored and imaged daily using video microscopy. […] AK 295 (Z-leu-Abu-(CH2)3-4-morpholinyl, gift of Dr. James Powers, Georgia Institute of Technology), is dissolved in 100% DMSO and is then diluted to its final concentration with culture medium. The final concentration of DMSO is 0.05%. Phenylmethylsulfonyl fluoride (PMSF) is manufactured by and commercially available from Sigma.
After 6 days of treatment (11 days in culture) immunostained DRGs are quantitated for degree of axonal degeneration. Images of the DRGs and neurites are captured onto disk using a computerized video imaging system, and are analyzed using NIH Image version 1.61. DRG areas are calculated by tracing the outside circumference of the remaining culture halo. The length of the longest neurite of each DRG is measured from the center of the DRG to the distal end of the neurite, so that cultures without remaining neurites still have positive values. These quantitative data are subjected to ANOVA, with post-test correction for multiple comparisons.

axotomized neurites = assay: Wallerian degeneration of axotomized DRG neurites in culture; type: cell-based, rat; settings: added at the time of axotomy; EGTA 2 mM or AK295 50 μM; 72 hours after axotomy
Protocol: Five-day old cultures with extended neurites are used. Neurites are cut by excising and removing the DRG with a scalpel blade. Care should be taken to remove substantially all neurons within the DRG. At least 1 ganglion/dish was left unaxotomized to serve as a control for that group of ganglia. For experiments involving therapeutic interventions, the media is changed just prior to axotomy to media containing either EGTA (2 mM) or AK295 (50 μM). Cultures are observed daily for 72 hours after axotomy, at which time they are fixed and immunostained.
Stained cultures are scored blindly for degree of axonal degeneration. […] Any fibers with interruptions along their length are scored as degenerated. The number of surviving fibers in each DRG are counted under 200× magnification, and the DRG is given a survival score of 0-3: 0 =no fibers remaining, 1=1-4 fibers remaining, 2=5-9 fibers remaining, 3=10 or more fibers remaining.

DRG neurites [2] = assay: Effect of treatment modalities on DRG area and neuritic length in control cultures (no vincristine); type: cell-based, rat; settings: for Area / Length: added to 5-day old cultures, after 6 days of treatment, no vincristine; for effects on neurite growth or survival in control cultures (in words): addition to control cultures
Description: This date is defined as treatment day 0. Cultures are monitored and imaged daily using video microscopy. […] The final concentration of DMSO is 0.05%.

[3] = Day 3 of treatment, AK295 50 μM
[4] = Day 4 of treatment, AK295 50 μM
[5] = Day 6 of treatment, AK295 50 μM, PMSF 50 μM

CCC(NC(=O)[C@H](CC(C)C)NC(=O)OCc1ccccc1)C(=O)C(=O)NCCCN1CCOCC1 (stereo partly shown) [AK295, Z-leu-Abu-(CH2)3-4-morpholinyl] was tested, and the “prevention of vincristine-induced axonal degeneration (in words)” value (“prevention” for short) (DRG neurites [1]; AK295 1 μM (not shown)) was “ineffective”, the “prevention” value (DRG neurites [1]; AK295 10 μM (not shown)) was “effective in preventing axonal degeneration” and the “prevention” value (DRG neurites [1]; AK295 50 μM) was “effective in preventing axonal degeneration”. The “Area (DRG neuritic halo)” value (DRG neurites [1]; [3]) was 16.61 ± 1.18 (18) mm^2, the “Length (longest neurite)” value (DRG neurites [1]; [3]) was 2.65 ± 0.11 mm and the “Area (DRG neuritic halo)” value (DRG neurites [1]; [4]) was 14.77 ± 2.19 (14) mm^2. For the same compound, the “Length (longest neurite)” value (DRG neurites [1]; [4]) was 2.45 ± 0.25 mm, the “Area (DRG neuritic halo)” value (DRG neurites [1]; [5]) was 10.34 ± 2.14 (12) mm^2 and the “Length (longest neurite)” value (DRG neurites [1]; [5]) was 2.05 ± 0.25 mm. The “protection against Wallerian degeneration (in words)” value (axotomized neurites) was “as protective as EGTA”, the Area (DRG neurites [2]) was 49.18 ± 2.69 mm^2 and the Length (DRG neurites [2]) was 4.80 ± 0.16 mm. The “effects on neurite growth or survival in control cultures (in words)” value (DRG neurites [2]) was “no effects on neurite growth or survival”.

For O=C(O)CN(CCOCCOCCN(CC(=O)O)CC(=O)O)CC(=O)O [EGTA], the “Area (DRG neuritic halo)” value (DRG neurites [1]; [3]) was 15.05 ± 1.78 (12) mm^2, the “Length (longest neurite)” value (DRG neurites [1]; [3]) was 2.62 ± 0.17 mm and the “Area (DRG neuritic halo)” value (DRG neurites [1]; [4]) was 12.97 ± 0.94 mm^2. The “Length (longest neurite)” value (DRG neurites [1]; [4]) was 2.44 ± 0.13 mm, the “Area (DRG neuritic halo)” value (DRG neurites [1]; [5]) was 13.36 ± 1.04 (14) mm^2 and the “Length (longest neurite)” value (DRG neurites [1]; [5]) was 2.43 ± 0.07 mm. For the same compound, the “protection against vincristine-induced axonal degeneration (in words)” value (DRG neurites [1]; EGTA 2 mM in standard media) was “as effective as calcium-free media”, the “protection against vincristine-induced axonal degeneration (in words)” value (DRG neurites [1]; EGTA ≦1 mM in standard media) was “ineffective” and the “protection against Wallerian degeneration (in words)” value (axotomized neurites) was “significant protection”. The Area (DRG neurites [2]) was 44.40 ± 2.74 mm^2, the Length (DRG neurites [2]) was 4.74 ± 0.18 mm and the “effects on neurite growth or survival in control cultures (in words)” value (DRG neurites [2]) was “no effects on neurite growth or survival”.

For O=S(=O)(F)Cc1ccccc1 [PMSF, Phenylmethylsulfonyl fluoride], the “Area (DRG neuritic halo)” value (DRG neurites [1]; [5]) was 0.73 ± 0.16 (43) mm^2, the “Length (longest neurite)” value (DRG neurites [1]; [5]) was 0.55 ± 0.06 mm and the “protection against vincristine-induced axonal degeneration (in words)” value (DRG neurites [1]; PMSF 50 μM, day 6) was “no protective effects”.
